One assay concerns LS174T cells. The experiment in a line: Cytotoxicity of gelonin coated C32/DNA particles. The following applies: single treatment; 70 w/w C32, 600 ng DNA, 100 nM gelonin; colon cancer cells. The class given is cell-based. The protocol: FIG. 14. Cytotoxity of composition on cells using a cytotoxic drug itself as the coating. 70 w/w C32 particles with 600 ng DNA were coated with 100 nM gelonin (a 28 kD protein) to test the cytotoxicity of the compostion in LS174T cells.
Unformulated gelonin is unable to reach the cytoplasm unassisted. In constrast, the gelonin coated nanoparticles are able to be effectively internalized into the cell and released from the endosomal compartment into the cytoplasm, where they are active.

The subject of the next assay is HUVECs. The experiment in a line: GFP transfection of confluent HUVECs in 12% serum, FACS. It is filed as cell-based, Human. Conditions: 40 w/w C32; N/P 1.55. The text has this:
GFP Transfections. Fluorescent Activated Cell Sorting (FACS) and enhanced green fluorescent protein (EGFP) DNA were utilized to determine the efficacy of nanoparticle gene delivery. FACS data was interpreted by using a two-dimensional contour plot that compares the ratio of EGFP channel fluorescence (x-axis) to yellow channel autofluorescence (y-axis) for greater accuracy than a one-dimensional histogram as previously described. […] These experiments took place under conditions generally seen as difficult for in vitro transfection, but important for an in vivo cardiovascular application: fully confluent, and therefore non-dividing, primary cells in the presence of a high concentration of serum proteins.
GFP Transfections. Non-viral nanoparticle transfections were performed on confluent HUVECs in the presence of 12% serum. HUVECs were seeded (75,000 cells/well) into clear 24-well plates (Becton Dickinson, Franklin Lakes, N.J., USA) at 24 hours prior to transfection to allow for growth to confluence. Nanoparticles were constructed as previously mentioned using a 6 μg DNA basis per well. Then 150 μL of each polymer/DNA/peptide nanoparticle solution was added to 1.00 mL of FBS supplemented EGM-2 media (12% Serum). […]
Flow Cytometry. GFP expression was measured using Fluorescence Activated Cell Sorting (FACS) on a FACSCalibur (Becton Dickinson, San Jose, Calif., USA). […]

As to gelonin, the cells killed result in the assay on LS174T cells was “unable to kill any of the cells”.

For EEEEEEEEEEEEGGGGGGGRDGS [E12-RDG], in the assay with HUVECs, the “transfection of HUVECs (FACS gating of GFP)” value is given as “do not”.

The values above are taken from patent US20100196492A1, “ELECTROSTATIC COATING OF PARTICLES FOR DRUG DELIVERY” (priority 2007, published 2010).
